# pIC50: −log10 of the molar value.
# Test system: 188146-221-R-J1-PDC complex spheroid viability
# Assay: Anticancer human tumor 188146-221-R-J1-PDC patient-derived colon adenocarcinoma cell line growth inhibition [POLQ]
# Conditions: for pIC50: curve of first compound; for viability, T/C: stronger effect = lower value
# Method in brief: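 Three-cell-type spheroids modelling solid tumor plus stroma served as the readout system; POL inhibitors were tested individually and in combination, concentration ranges set by clinical Cmax where known.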
# [1] = second compound 0.0316 µM, first compound 0.0316 µM
# [2] = second compound 0.0316 µM, first compound 0.1 µM
# [3] = second compound 0.0316 µM, first compound 0.316 µM
# [4] = second compound 0.0316 µM, first compound 1 µM
# [5] = second compound 0.0316 µM, first compound 3.16 µM
# [6] = second compound 0.0316 µM, first compound 10 µM
# [7] = second compound 0.1 µM, first compound 0.0316 µM
# [8] = second compound 0.1 µM, first compound 0.1 µM
# [9] = second compound 0.1 µM, first compound 0.316 µM
# [10] = second compound 0.1 µM, first compound 1 µM
# [11] = second compound 0.1 µM, first compound 3.16 µM
# [12] = second compound 0.1 µM, first compound 10 µM
# [13] = second compound 0.316 µM, first compound 0.0316 µM
# [14] = second compound 0.316 µM, first compound 0.1 µM
# [15] = second compound 0.316 µM, first compound 0.316 µM
# [16] = second compound 0.316 µM, first compound 1 µM
# [17] = second compound 0.316 µM, first compound 3.16 µM
# [18] = second compound 0.316 µM, first compound 10 µM
# [19] = second compound 1 µM, first compound 0.0316 µM
# [20] = second compound 1 µM, first compound 0.1 µM
# [21] = second compound 1 µM, first compound 0.316 µM
# [22] = second compound 1 µM, first compound 1 µM
# [23] = second compound 1 µM, first compound 3.16 µM
# [24] = second compound 1 µM, first compound 10 µM
# [25] = second compound 3.16 µM, first compound 0.0316 µM
# [26] = second compound 3.16 µM, first compound 0.1 µM
# [27] = second compound 3.16 µM, first compound 0.316 µM
# [28] = second compound 3.16 µM, first compound 1 µM
# [29] = second compound 3.16 µM, first compound 3.16 µM
# [30] = second compound 3.16 µM, first compound 10 µM
# [31] = second compound 10 µM, first compound 0.0316 µM
# [32] = second compound 10 µM, first compound 0.1 µM
# [33] = second compound 10 µM, first compound 0.316 µM
# [34] = second compound 10 µM, first compound 1 µM
# [35] = second compound 10 µM, first compound 3.16 µM
# [36] = second compound 10 µM, first compound 10 µM
# 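Further: spheroids exposed to compounds for seven days.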
# 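Wherever viability, T/C is given: 100% = DMSO vehicle control viability.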
structure (smiles),measurement,setting,value
C#Cc1c(F)ccc2cc(O)cc(-c3ncc4c(N5CC6CCC(C5)N6)nc(OCC56CCCN5CC(F)C6)nc4c3F)c12 (stereo unspecified) + COC1C(OC(N)=O)C(O)C(Oc2ccc3c(O)c(NC(=O)c4ccc(O)c(CC=C(C)C)c4)c(=O)oc3c2C)OC1(C)C,pIC50,second compound 0.0316 µM,< 5.00
same,pIC50,second compound 0.1 µM,< 5.00
same,pIC50,second compound 0.316 µM,< 5.00
same,pIC50,second compound 1 µM,< 5.00
same,pIC50,second compound 3.16 µM,< 5.00
same,pIC50,second compound 10 µM,< 5.00
same,"viability, T/C",[1],105%
same,"viability, T/C",[2],93.5%
same,"viability, T/C",[3],100%
same,"viability, T/C",[4],100%
same,"viability, T/C",[5],103%
same,"viability, T/C",[6],83.1%
same,"viability, T/C",[7],122%
same,"viability, T/C",[8],94%
same,"viability, T/C",[9],92.5%
same,"viability, T/C",[10],95.9%
same,"viability, T/C",[11],85.2%
same,"viability, T/C",[12],93.5%
same,"viability, T/C",[13],113%
same,"viability, T/C",[14],95.9%
same,"viability, T/C",[15],102%
same,"viability, T/C",[16],92.8%
same,"viability, T/C",[17],92.5%
same,"viability, T/C",[18],103%
same,"viability, T/C",[19],112%
same,"viability, T/C",[20],96.1%
same,"viability, T/C",[21],100%
same,"viability, T/C",[22],90.5%
same,"viability, T/C",[23],93.8%
same,"viability, T/C",[24],88.8%
same,"viability, T/C",[25],106%
same,"viability, T/C",[26],103%
same,"viability, T/C",[27],110%
same,"viability, T/C",[28],87.2%
same,"viability, T/C",[29],104%
same,"viability, T/C",[30],82.6%
same,"viability, T/C",[31],100%
same,"viability, T/C",[32],98.6%
same,"viability, T/C",[33],108%
same,"viability, T/C",[34],97.2%
same,"viability, T/C",[35],95.6%
same,"viability, T/C",[36],92.8%
C=CC(=O)N1CCN(c2nc(=O)n(-c3c(C)ccnc3C(C)C)c3nc(-c4c(O)cccc4F)c(F)cc23)C(C)C1 (stereo unspecified) + COC1C(OC(N)=O)C(O)C(Oc2ccc3c(O)c(NC(=O)c4ccc(O)c(CC=C(C)C)c4)c(=O)oc3c2C)OC1(C)C,pIC50,second compound 0.0316 µM,< 5.00
same,pIC50,second compound 0.1 µM,< 5.00
same,pIC50,second compound 0.316 µM,< 5.00
same,pIC50,second compound 1 µM,< 5.00
same,pIC50,second compound 3.16 µM,< 5.00
same,pIC50,second compound 10 µM,< 5.00
same,"viability, T/C",[1],103%
same,"viability, T/C",[2],97%
same,"viability, T/C",[3],85.7%
same,"viability, T/C",[4],99.1%
same,"viability, T/C",[5],98.7%
same,"viability, T/C",[6],72.4%
same,"viability, T/C",[7],107%
same,"viability, T/C",[8],107%
same,"viability, T/C",[9],94.6%
same,"viability, T/C",[10],105%
same,"viability, T/C",[11],88.1%
same,"viability, T/C",[12],92.6%
same,"viability, T/C",[13],110%
same,"viability, T/C",[14],107%
same,"viability, T/C",[15],103%
same,"viability, T/C",[16],110%
same,"viability, T/C",[17],95.3%
same,"viability, T/C",[18],83.6%
same,"viability, T/C",[19],93.2%
same,"viability, T/C",[20],105%
same,"viability, T/C",[21],113%
same,"viability, T/C",[22],101%
same,"viability, T/C",[23],101%
same,"viability, T/C",[24],90.4%
same,"viability, T/C",[25],107%
same,"viability, T/C",[26],109%
same,"viability, T/C",[27],100%
same,"viability, T/C",[28],101%
same,"viability, T/C",[29],90.3%
same,"viability, T/C",[30],87.2%
same,"viability, T/C",[31],96%
same,"viability, T/C",[32],107%
same,"viability, T/C",[33],108%
same,"viability, T/C",[34],97.5%
same,"viability, T/C",[35],115%
same,"viability, T/C",[36],93.7%
CC(C)n1c(=O)n(C)c2cnc3cc(F)c(-c4ccc(OCCCN5CCCCC5)nc4)cc3c21 + COC1C(OC(N)=O)C(O)C(Oc2ccc3c(O)c(NC(=O)c4ccc(O)c(CC=C(C)C)c4)c(=O)oc3c2C)OC1(C)C,pIC50,second compound 0.0316 µM,< 5.00
same,pIC50,second compound 0.1 µM,< 5.00
same,pIC50,second compound 0.316 µM,< 5.00
same,pIC50,second compound 1 µM,< 5.00
same,pIC50,second compound 3.16 µM,< 5.00
same,pIC50,second compound 10 µM,< 5.00
same,"viability, T/C",[1],103%
same,"viability, T/C",[2],105%
same,"viability, T/C",[3],101%
same,"viability, T/C",[4],97.6%
same,"viability, T/C",[5],94.6%
same,"viability, T/C",[6],82.9%
same,"viability, T/C",[7],103%
same,"viability, T/C",[8],95.8%
same,"viability, T/C",[9],106%
same,"viability, T/C",[10],98%
same,"viability, T/C",[11],93.3%
same,"viability, T/C",[12],82%
same,"viability, T/C",[13],99.6%
same,"viability, T/C",[14],104%
same,"viability, T/C",[15],94.7%
same,"viability, T/C",[16],89.8%
same,"viability, T/C",[17],81.3%
same,"viability, T/C",[18],96.2%
same,"viability, T/C",[19],96.8%
same,"viability, T/C",[20],101%
same,"viability, T/C",[21],103%
same,"viability, T/C",[22],102%
same,"viability, T/C",[23],102%
same,"viability, T/C",[24],86.8%
same,"viability, T/C",[25],98.8%
same,"viability, T/C",[26],101%
same,"viability, T/C",[27],93.4%
same,"viability, T/C",[28],96.1%
same,"viability, T/C",[29],108%
same,"viability, T/C",[30],88.7%
same,"viability, T/C",[31],107%
same,"viability, T/C",[32],101%
same,"viability, T/C",[33],109%
same,"viability, T/C",[34],93.7%
same,"viability, T/C",[35],113%
same,"viability, T/C",[36],90.9%

# — PubChem BioAssay AID1963851 (Molecular Pharmacology Branch, DTP, NCI, 2024)
